Where two headings read alike, the source gives them in different places.
Tests used:
TA100 = conditions: pre-incubation, presence of metabolic activation; cited from earlier work
CHO-WBL cells = conditions: ±metabolic activation, up to 5000 μg/mL; cited from earlier work
[1] = tested on: femoral bone marrow polychromatic erythrocytes; conditions: ip, cited from earlier work
[2] = tested on: S. typhimurium strains TA98, TA100, TA1535, TA1537; conditions: up to 5000 μg/plate; cited from earlier work
[3] = diet, 92 or 93 days; cited from earlier work
TA1535 = conditions: plate incorporation, absence of metabolic activation; cited from earlier work
[4] = male, cited from earlier work
[5] = In vitro metabolism, human liver microsomes; format: in vitro ADME; conditions: 60 min, with NADPH, positive control
[6] = In vitro metabolism, rat liver microsomes; format: in vitro ADME, Sprague-Dawley rat; conditions: 60 min, with NADPH, positive control
[7] = 28 days oral gavage, highest dose evaluated; ref Senomyx, unpublished results; cited from earlier work
[8] = ref Chi, unpublished results, cited from earlier work
CYP3A4 [9] = target: T1, CYP3A4 (Homo sapiens, UniProt P08684); conditions: ref Senomyx, unpublished results; cited from earlier work
[10] = tested on: GPCRs, ion channels, nuclear receptors, transporters; conditions: 10 μM; ref Senomyx, unpublished results; cited from earlier work
CYP3A4 [11] = target: T1, CYP3A4; conditions: ref Senomyx, unpublished results; cited from earlier work; remark: listed apart in the source
[12] = female, oral gavage 10 mg/kg bw
[13] = female, oral gavage 30 mg/kg bw
[14] = female, oral gavage 100 mg/kg bw

T1 sequence (P08684 whole entry): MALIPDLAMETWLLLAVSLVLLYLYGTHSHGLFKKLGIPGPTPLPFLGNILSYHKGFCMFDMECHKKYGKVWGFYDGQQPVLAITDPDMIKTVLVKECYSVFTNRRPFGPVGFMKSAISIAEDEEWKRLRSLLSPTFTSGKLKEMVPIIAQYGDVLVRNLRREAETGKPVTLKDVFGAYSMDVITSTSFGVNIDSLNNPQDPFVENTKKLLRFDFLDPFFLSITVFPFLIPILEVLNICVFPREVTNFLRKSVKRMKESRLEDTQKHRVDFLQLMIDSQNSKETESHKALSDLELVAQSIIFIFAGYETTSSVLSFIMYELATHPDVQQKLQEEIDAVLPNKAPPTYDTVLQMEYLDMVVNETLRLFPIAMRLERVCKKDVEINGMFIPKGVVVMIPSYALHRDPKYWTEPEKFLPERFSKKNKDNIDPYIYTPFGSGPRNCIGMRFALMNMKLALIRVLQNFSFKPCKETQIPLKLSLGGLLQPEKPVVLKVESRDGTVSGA

In the case of COc1ccc(CNC(=O)C(=O)NCCc2ccccn2)c(OC)c1 [S336, N^1-(2,4-dimethoxybenzyl)-N^2-(2-(pyridin-2-yl)ethyl)oxalamide], the Reverse mutation result (TA100) is given as “weakly positive”, the Clastogenicity (CHO-WBL cells) is given as “non-clastogenic” and the “Micronucleated polychromatic erythrocytes vs negative control” value ([1]; up to 800 mg/kg bw, 24, 36, 48 h) is given as “no statistically significant differences”. The Maximum tolerated dose [1] was 800 mg/kg bw, the “Mutagenicity, conclusion” value [2] was “non-mutagenic” and the NOEL [3] was “at least 100 mg/kg bw/day”. For the same molecule, the Reverse mutation result (TA1535) was “weakly positive”, the AUC0-last ([4]; iv 0.1 mg/kg bw) was 65.0 ± 1.3 ng·h/mL and the Cmax ([4]; iv 0.1 mg/kg bw) was 207 ± 25.8 ng/mL. For the same molecule, the Tmax ([4]; iv 0.1 mg/kg bw) was 1.8 min, the t1/2 ([4]; iv 0.1 mg/kg bw) was 25.2 min and the “% F” value ([4]; oral gavage 10 mg/kg bw) was 89.4%. The AUC0-last ([4]; oral gavage 10 mg/kg bw) was 5809 ± 444 ng·h/mL, the Cmax ([4]; oral gavage 10 mg/kg bw) was 7027 ± 925 ng/mL and the Tmax ([4]; oral gavage 10 mg/kg bw) was 15 min. The t1/2 ([4]; oral gavage 10 mg/kg bw) was 41.4 min, the “% F” value ([4]; oral gavage 30 mg/kg bw) was 114.2% and the AUC0-last ([4]; oral gavage 30 mg/kg bw) was 22260 ± 727 ng·h/mL. The Cmax ([4]; oral gavage 30 mg/kg bw) was 23430 ± 1436 ng/mL, the Tmax ([4]; oral gavage 30 mg/kg bw) was 11.4 min and the t1/2 ([4]; oral gavage 30 mg/kg bw) was 42.6 min. For the same molecule, the “% F” value ([4]; oral gavage 100 mg/kg bw) was 134.6%, the AUC0-last ([4]; oral gavage 100 mg/kg bw) was 87490 ± 13350 ng·h/mL and the Cmax ([4]; oral gavage 100 mg/kg bw) was 36270 ± 6004 ng/mL. The Tmax ([4]; oral gavage 100 mg/kg bw) was 15 min, the t1/2 ([4]; oral gavage 100 mg/kg bw) was 58.8 min and the “Fold increase in AUClast for 10-fold increase in oral dose” value (from here on “Fold increase in AUClast”) [4] was 15.1 fold.
For C[C@]12CC[C@H]3[C@@H](CCC4=CC(=O)CC[C@@]43C)[C@@H]1CC[C@@H]2O [testosterone, reference compound], the Turnover [5] was “greater than 85%” and the Turnover [6] was “greater than 85%”.
For COc1cccc(CNC(=O)C(=O)NCCc2ccccn2)c1OC [S5456, N^1-(2,3-dimethoxybenzyl)-N^2-(2-(pyridin-2-yl)ethyl)oxalamide], the NOEL [7] is given as 140 mg/kg bw/day, the AUC0-last ([8]; female, iv 1.0 mg/kg bw) is given as 817 ± 186 ng·h/mL and the Cmax ([8]; female, iv 1.0 mg/kg bw) is given as 2398 ± 391 ng/mL. The Tmax ([8]; female, iv 1.0 mg/kg bw) was 1.8 min, the t1/2 ([8]; female, iv 1.0 mg/kg bw) was 19.2 min and the “% F” value [8, 12] was 51.4%. The AUC0-last [8, 12] was 4201 ± 1013 ng·h/mL, the Cmax [8, 12] was 3258 ± 1087 ng/mL and the Tmax [8, 12] was 15 min. For the same molecule, the t1/2 [8, 12] was 72 min, the “% F” value [8, 13] was 108.6% and the AUC0-last [8, 13] was 26610 ± 7306 ng·h/mL. For the same molecule, the Cmax [8, 13] was 10980 ± 1500 ng/mL, the Tmax [8, 13] was 19.8 min and the t1/2 [8, 13] was 95.4 min. For the same molecule, the “% F” value [8, 14] was 250.2%, the AUC0-last [8, 14] was 204400 ± 44540 ng·h/mL and the Cmax [8, 14] was 34670 ± 4196 ng/mL. The Tmax [8, 14] was 55.2 min, the t1/2 [8, 14] was 175 min and the “Fold increase in AUClast” value ([8]; female) was 48.7 fold. For the same molecule, the AUC0-last ([8]; male, iv 1.0 mg/kg bw) was 757 ± 112 ng·h/mL, the Cmax ([8]; male, iv 1.0 mg/kg bw) was 2633 ± 363 ng/mL and the Tmax ([8]; male, iv 1.0 mg/kg bw) was 1.8 min. The t1/2 ([8]; male, iv 1.0 mg/kg bw) was 19.2 min, the “% F” value ([8]; male, oral gavage 10 mg/kg bw) was 39.6% and the AUC0-last ([8]; male, oral gavage 10 mg/kg bw) was 3001 ± 498 ng·h/mL. For the same molecule, the Cmax ([8]; male, oral gavage 10 mg/kg bw) was 3120 ± 787 ng/mL, the Tmax ([8]; male, oral gavage 10 mg/kg bw) was 15 min and the t1/2 ([8]; male, oral gavage 10 mg/kg bw) was 57 min. For the same molecule, the “% F” value ([8]; male, oral gavage 30 mg/kg bw) was 42.0%, the AUC0-last ([8]; male, oral gavage 30 mg/kg bw) was 9535 ± 4190 ng·h/mL and the Cmax ([8]; male, oral gavage 30 mg/kg bw) was 7643 ± 2404 ng/mL. For the same molecule, the Tmax ([8]; male, oral gavage 30 mg/kg bw) was 18.6 min, the t1/2 ([8]; male, oral gavage 30 mg/kg bw) was 65.4 min and the “% F” value ([8]; male, oral gavage 100 mg/kg bw) was 73.9%. The AUC0-last ([8]; male, oral gavage 100 mg/kg bw) was 55950 ± 19820 ng·h/mL, the Cmax ([8]; male, oral gavage 100 mg/kg bw) was 33070 ± 14550 ng/mL and the Tmax ([8]; male, oral gavage 100 mg/kg bw) was 15 min. The t1/2 ([8]; male, oral gavage 100 mg/kg bw) was 81 min, the “Fold increase in AUClast” value ([8]; male) was 18.6 fold and the “% inhibition at 10 μM, any CYP isozyme of the panel” value (CYP3A4 [9]) was less than 50%. For the same molecule, the Significant off-target activities [10] was “No other significant off-target activities” and the “% inhibition at 10 μM” value (CYP3A4 [11]) was 51%.

From PMC5615911 (Toxicology Reports, 2016)
